Assay results from publication PMC7479175, “Selection of Potent Inhibitors of Soluble Epoxide Hydrolase for Usage in Veterinary Medicine” (Frontiers in Veterinary Science, 2020).
Like-named read-outs stand apart in the source and are kept apart here.

Tests used:
Horse sEH = Horse sEH (Equus caballus, UniProt F7C407); assay: Secondary screen (kinetic mode), PHOME substrate; assay type: biochemical; conditions: [I] = 100 nM, secondary kinetic mode screening; read-out: Horse sEH Inhibition (%) S.
Dog sEH = target: T1, Dog sEH (Canis lupus familiaris, UniProt A0A8I3NJL8); assay: Secondary screen (kinetic mode), PHOME substrate; assay type: biochemical; conditions: [I] = 100 nM, secondary kinetic mode screening; read-out: Dog sEH Inhibition (%) S.
T1 sequence (A0A8I3NJL8 1-556): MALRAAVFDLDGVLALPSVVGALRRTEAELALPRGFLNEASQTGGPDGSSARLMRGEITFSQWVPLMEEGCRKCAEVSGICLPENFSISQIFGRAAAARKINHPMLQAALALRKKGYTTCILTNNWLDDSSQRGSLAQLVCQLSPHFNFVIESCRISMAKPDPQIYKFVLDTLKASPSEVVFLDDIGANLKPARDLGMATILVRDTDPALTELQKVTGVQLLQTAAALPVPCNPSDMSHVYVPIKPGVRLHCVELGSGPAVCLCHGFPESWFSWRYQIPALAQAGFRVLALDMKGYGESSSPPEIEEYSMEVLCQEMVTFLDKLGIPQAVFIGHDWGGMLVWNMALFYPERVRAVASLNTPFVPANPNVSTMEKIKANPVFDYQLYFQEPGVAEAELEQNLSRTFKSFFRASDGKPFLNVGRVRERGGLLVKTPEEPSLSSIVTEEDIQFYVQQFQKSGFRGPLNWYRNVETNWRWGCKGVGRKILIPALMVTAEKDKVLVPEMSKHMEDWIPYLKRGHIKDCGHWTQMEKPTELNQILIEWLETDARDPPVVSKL

[1] = Solubility of inhibitors in different solvents; assay type: physicochemical; conditions: thermodynamic from solid
Method: The un-dissolved compounds were filtered through a 0.22 μm centrifuge filter at 30 or 40°C and the supernatant further diluted 10-fold with methanol. The concentration of t-TUCB in the samples was determined by LC/MS/MS analysis as previously described ([15]).

[2] = tested on: horses with chronic laminitis; conditions: 0.1–1 mg/kg i.v., ref [11]–[13]; cited from earlier work
dogs with osteoarthritis = tested on: dogs with osteoarthritis; parameters: method as in PMID 31214021; conditions: ref [14]; cited from earlier work

Horse sEH, sequence (F7C407 entry or part of it): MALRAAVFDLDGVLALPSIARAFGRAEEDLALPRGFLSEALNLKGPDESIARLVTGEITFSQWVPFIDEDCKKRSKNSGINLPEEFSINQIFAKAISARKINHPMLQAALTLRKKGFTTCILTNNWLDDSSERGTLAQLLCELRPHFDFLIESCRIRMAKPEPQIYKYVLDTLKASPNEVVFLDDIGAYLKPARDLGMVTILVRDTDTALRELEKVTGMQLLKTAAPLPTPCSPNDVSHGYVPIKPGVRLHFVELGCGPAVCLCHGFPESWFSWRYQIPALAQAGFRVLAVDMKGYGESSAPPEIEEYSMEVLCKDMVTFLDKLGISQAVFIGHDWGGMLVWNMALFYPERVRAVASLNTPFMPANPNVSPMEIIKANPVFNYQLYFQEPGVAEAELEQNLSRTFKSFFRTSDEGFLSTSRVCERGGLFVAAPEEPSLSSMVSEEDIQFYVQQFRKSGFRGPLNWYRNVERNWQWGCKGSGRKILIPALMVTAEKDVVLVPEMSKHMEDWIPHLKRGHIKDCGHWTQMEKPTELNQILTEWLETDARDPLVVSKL

**Q.** Which inhibition at 0.1 µM (Horse sEH) does the source give for `N#CNC(=O)CCCCCCCCCCCNC(=O)NC12CC3CC(CC(C3)C1)C2` [1,845] here?
**A.** 88%

**Q.** What about the inhibition at 0.1 µM (Dog sEH) of the same compound?
**A.** 83%

**Q.** Which inhibition at 0.1 µM (Horse sEH) does the source give for `O=C(NCCCCOc1ccc(F)cc1)NC12CC3CC(CC(C3)C1)C2` [1,707] here?
**A.** 87%

**Q.** And the inhibition at 0.1 µM (Dog sEH)?
**A.** 83%

**Q.** With `O=C(Nc1ccc(OC(F)(F)F)cc1)N[C@H]1CC[C@H](Oc2ccc(C(=O)O)cc2)CC1` [1,728, trans-4-{4-[3-(4-trifluoromethoxy-phenyl)-ureido]-cyclohexyloxy}-benzoic acid] as the compound, how does the solubility at 24 h ([1]; aqueous buffer, Phosphate Buffer (0.1 M pH 7.4), 30°C, read-out: Solubility) read?
**A.** 0.011 mM

**Q.** What about the solubility at 24 h ([1]; aqueous buffer, Phosphate Buffer (0.1 M pH 7.4), 40°C, read-out: Solubility in mg/mL) of the same compound?
**A.** 0.01 mg/mL

**Q.** What about the solubility at 24 h ([1]; aqueous with cosolvent or surfactant or cyclodextrin, Tween 80, 30°C, read-out: Solubility) of the same compound?
**A.** 18 mM

**Q.** What about the solubility at 24 h ([1]; aqueous with cosolvent or surfactant or cyclodextrin, Tween 80, 40°C, read-out: Solubility) of the same compound?
**A.** 34 mM

**Q.** What about the solubility at 24 h ([1]; oil or lipid, Oleic rich oil, 30°C, read-out: Solubility) of the same compound?
**A.** 0.31 mM

**Q.** What about the solubility at 24 h ([1]; oil or lipid, Oleic rich oil, 30°C, read-out: Solubility in mg/mL) of the same compound?
**A.** 0.13 mg/mL

**Q.** And the solubility at 24 h ([1]; oil or lipid, Oleic rich oil, 40°C, read-out: Solubility in mg/mL)?
**A.** 0.1 mg/mL

**Q.** What about the solubility at 24 h ([1]; organic solvent or mixture, Carbitol, 30°C, read-out: Solubility) of the same compound?
**A.** 83 mM

**Q.** What about the solubility at 24 h ([1]; organic solvent or mixture, Carbitol, 30°C, read-out: Solubility in mg/mL) of the same compound?
**A.** 37 mg/mL

**Q.** What about the solubility at 24 h ([1]; organic solvent or mixture, DMSO, 30°C, read-out: Solubility) of the same compound?
**A.** 299 mM

**Q.** What about the solubility at 24 h ([1]; organic solvent or mixture, DMSO, 30°C, read-out: Solubility in mg/mL) of the same compound?
**A.** 131 mg/mL

**Q.** What about the solubility at 24 h ([1]; organic solvent or mixture, DMSO, 40°C, read-out: Solubility) of the same compound?
**A.** 580 mM

**Q.** What about the solubility at 24 h ([1]; organic solvent or mixture, DMSO, 40°C, read-out: Solubility in mg/mL) of the same compound?
**A.** 254 mg/mL

**Q.** What about the solubility at 24 h ([1]; organic solvent or mixture, Ethanol, 30°C, read-out: Solubility) of the same compound?
**A.** 9 mM

**Q.** And the solubility at 24 h ([1]; organic solvent or mixture, Ethanol, 30°C, read-out: Solubility in mg/mL)?
**A.** 4 mg/mL

**Q.** What about the solubility at 24 h ([1]; organic solvent or mixture, Ethanol, 40°C, read-out: Solubility) of the same compound?
**A.** 32 mM

**Q.** What about the solubility at 24 h ([1]; organic solvent or mixture, Ethanol, 40°C, read-out: Solubility in mg/mL) of the same compound?
**A.** 14 mg/mL

**Q.** What about the solubility at 24 h ([1]; organic solvent or mixture, Glycerol, 30°C, read-out: Solubility) of the same compound?
**A.** 0.13 mM

**Q.** What about the solubility at 24 h ([1]; organic solvent or mixture, Glycerol, 30°C, read-out: Solubility in mg/mL) of the same compound?
**A.** 0.06 mg/mL

**Q.** And the solubility at 24 h ([1]; organic solvent or mixture, Glycerol, 40°C, read-out: Solubility)?
**A.** 0.41 mM

**Q.** And the solubility at 24 h ([1]; organic solvent or mixture, Glycerol, 40°C, read-out: Solubility in mg/mL)?
**A.** 0.18 mg/mL

**Q.** What about the solubility at 24 h ([1]; organic solvent or mixture, PEG200, 30°C, read-out: Solubility) of the same compound?
**A.** 195 mM

**Q.** And the solubility at 24 h ([1]; organic solvent or mixture, PEG200, 30°C, read-out: Solubility in mg/mL)?
**A.** 85 mg/mL

**Q.** And the solubility at 24 h ([1]; organic solvent or mixture, PEG200, 40°C, read-out: Solubility)?
**A.** 207 mM

**Q.** What about the solubility at 24 h ([1]; organic solvent or mixture, PEG200, 40°C, read-out: Solubility in mg/mL) of the same compound?
**A.** 91 mg/mL

**Q.** And the solubility at 24 h ([1]; organic solvent or mixture, PEG300, 40°C, read-out: Solubility)?
**A.** 254 mM

**Q.** What about the solubility at 24 h ([1]; organic solvent or mixture, PEG300, 40°C, read-out: Solubility in mg/mL) of the same compound?
**A.** 111 mg/mL

**Q.** What about the solubility at 24 h ([1]; organic solvent or mixture, PEG400, 30°C, read-out: Solubility) of the same compound?
**A.** 40 mM

**Q.** And the solubility at 24 h ([1]; organic solvent or mixture, PEG400, 30°C, read-out: Solubility in mg/mL)?
**A.** 18 mg/mL

**Q.** And the solubility at 24 h ([1]; organic solvent or mixture, PEG400, 40°C, read-out: Solubility)?
**A.** 57 mM

**Q.** What about the solubility at 24 h ([1]; organic solvent or mixture, PEG400, 40°C, read-out: Solubility in mg/mL) of the same compound?
**A.** 25 mg/mL

**Q.** What about the solubility at 24 h ([1]; organic solvent or mixture, Propylene glycol, 30°C, read-out: Solubility) of the same compound?
**A.** 9 mM

**Q.** What about the solubility at 24 h ([1]; organic solvent or mixture, Propylene glycol, 30°C, read-out: Solubility in mg/mL) of the same compound?
**A.** 4 mg/mL

**Q.** What about the solubility at 24 h ([1]; organic solvent or mixture, Propylene glycol, 40°C, read-out: Solubility) of the same compound?
**A.** 14 mM

**Q.** And the solubility at 24 h ([1]; organic solvent or mixture, Propylene glycol, 40°C, read-out: Solubility in mg/mL)?
**A.** 6 mg/mL

**Q.** And the solubility at 24 h ([1]; organic solvent or mixture, Tween 80, 30°C, read-out: Solubility in mg/mL)?
**A.** 8 mg/mL

**Q.** And the solubility at 24 h ([1]; organic solvent or mixture, Tween 80, 40°C, read-out: Solubility in mg/mL)?
**A.** 15 mg/mL

**Q.** And the solubility at 24 h ([1]; organic solvent or mixture, such as Carbitol and polyethylene glycol (PEG), read-out: solubility in numerous organic liquids used in the formulation of drugs)?
**A.** > 20 mg/mL

**Q.** What about the adverse effects [2] of the same compound?
**A.** without observed adverse effects

**Q.** And the reduction in pain [2]?
**A.** significant and rapid reduction in pain

**Q.** What about the pain perception (dogs with osteoarthritis) of the same compound?
**A.** able to reduce pain perception
